Measured values reported in PMC8095115, “Dual regulation of TRPV1 channels by phosphatidylinositol via functionally distinct binding sites” (The Journal of Biological Chemistry, 2021).

Columns and labels:
[1] = target: TRPV1 (Rattus norvegicus, UniProt O35433, D509A); assay: excised inside-out patch clamp, Xenopus oocytes; type: cell-based
[2] = target: TRPV1 (Rattus norvegicus, UniProt O35433); assay: excised inside-out patch clamp, Xenopus oocytes; partial inhibition with PtdIns([…])P2, partial activation without it; type: cell-based; conditions: read-out: % inhibition at 50 μM
Chain of TRPV1 (Rattus norvegicus, UniProt O35433) (O35433 whole entry): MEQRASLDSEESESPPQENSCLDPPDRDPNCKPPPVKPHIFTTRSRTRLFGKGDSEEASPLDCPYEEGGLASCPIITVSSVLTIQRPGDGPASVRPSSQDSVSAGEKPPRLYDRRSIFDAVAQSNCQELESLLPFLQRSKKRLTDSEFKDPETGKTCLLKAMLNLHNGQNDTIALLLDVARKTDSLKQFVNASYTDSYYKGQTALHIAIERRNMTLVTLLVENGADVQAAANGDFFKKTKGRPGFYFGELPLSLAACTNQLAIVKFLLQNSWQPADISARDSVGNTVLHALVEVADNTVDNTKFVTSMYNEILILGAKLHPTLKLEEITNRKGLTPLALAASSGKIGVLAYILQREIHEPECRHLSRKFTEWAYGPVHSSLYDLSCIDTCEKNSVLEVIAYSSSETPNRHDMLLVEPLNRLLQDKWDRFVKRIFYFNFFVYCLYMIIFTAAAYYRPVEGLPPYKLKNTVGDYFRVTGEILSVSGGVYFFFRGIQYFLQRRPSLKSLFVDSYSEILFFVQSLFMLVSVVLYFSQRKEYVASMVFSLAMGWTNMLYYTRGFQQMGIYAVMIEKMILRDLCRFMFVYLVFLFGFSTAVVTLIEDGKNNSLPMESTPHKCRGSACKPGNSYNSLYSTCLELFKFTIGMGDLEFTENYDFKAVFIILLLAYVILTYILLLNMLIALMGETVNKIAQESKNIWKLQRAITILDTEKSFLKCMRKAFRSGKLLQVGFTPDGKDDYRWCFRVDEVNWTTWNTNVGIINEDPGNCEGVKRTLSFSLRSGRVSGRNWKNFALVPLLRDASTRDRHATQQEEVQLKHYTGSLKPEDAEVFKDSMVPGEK

Chain of TRPV1 (Rattus norvegicus, UniProt O35433, D509A) (O35433 whole entry D509A): as the sequence (O35433 whole entry) above, with D509A counted along it

CCCCCCCC(=O)OC[C@H](COP(=O)(O)O[C@@H]1[C@H](O)[C@H](O)[C@@H](O)[C@H](O)[C@H]1O)OC(=O)CCCCCCC [diC8 PtdIns]
excised inside-out patch clamp, Xenopus oocytes [1]: The D509A mutant on the other hand was clearly inhibited by PtdIns
inhibition at 50 µM [2]: ~50%
